Results from patent publication US20120251613A1, “METHOD FOR TREATING VITILIGO WITH A PROSTAGLANDIN ANALOGUE” (AGILA SPECIALITIES PVT. LTD., priority 2011, published 2012).
Entries after “also recorded” stand apart in the source; their conditions may differ.

How the values were obtained:
Patients with vitiligo [1] = assay: Clinical efficacy of topical bimatoprost solution for treatment of vitiligo: degree of repigmentation; assay type: in vivo, human; settings: for number of patients with Complete repigmentation (100%) / number of patients with Excellent repigmentation (75-99%) / number of patients with Marked repigmentation (50-74%) / number of patients with Moderate repigmentation (25-49%) / number of patients with Nil/mild repigmentation (less than 25%) / Repigmentation of body sites: number with Complete repigmentation (100%) / Repigmentation of body sites: number with Excellent repigmentation (75-99%) / Repigmentation of body sites: number with Marked repigmentation (50-74%) / Repigmentation of body sites: number with Moderate repigmentation (25-49%) / Repigmentation of body sites: number with Nil/mild repigmentation (less than 25%): 0.03% solution topically twice a day, 4 months
Experimental: 20 Patients with vitiligo were treated with topical bimatoprost solution for 4 months to elucidate its efficacy and tolerability in stable vitiligo. The solution contained bimatoprost in a concentration of 0.3 mg/mL (0.03%), benzalkonium chloride in a concentration of 0.05 mg/mL, and water. The solution has a pH of between 6.8 and 7.8, and contains sodium chloride, a dibasic sodium phosphate/citric acid buffer, and sodium hydroxide and/or hydrochloric acid to adjust the pH. The subjects had suffered from vitiligo for a period of between 8 and 80 months. The average period of depigmentation for the patients was 26.7 months. All the patients were examined by an independent observer. The percentage of repigmentation in form of color or size changes and folliculocentric/peripheral repigmentation were observed. […] Specifically, Nil/Mild repigmentation means that the skin has undergone less than 25% repigmentation, i.e., less than 25% of the skin surface has repigmented or, if repigmentation is observed, the skin has regained less than 25% of its natural color. Moderate repigmentation means that the skin has undergone 25-49% repigmentation, as measured by repigmented surface are and/or skin color. Marked repigmentation means that the skin has undergone 50-74% repigmentation, and excellent repigmentation means that the skin has undergone 75-99% repigmentation. Complete response means that repigmented skin lesions from vitiligo are indistinguishable from skin which has never been depigmented. The repigmentation effect of the composition starts rapidly within one to two months after starting the treatment. Topical treatment with bimatoprost is continued for a period of at least two months. If no response is observed to treatment with topical bimatoprost, treatment is stopped at the end of two months. If a mild or moderate response to treatment with topical bimatoprost is observed, therapy is continued for at least 4 months, while observing the patient for any further delayed improvement. In cases where complete or excellent response to topical bimatoprost is observed, treatment is stopped to determine whether relapse, i.e., whether loss of pigmentation is observed upon cessation of bimatoprost therapy. The frequency of application of the topical bimatoprost as an aqueous solution is twice a day.

Patients with vitiligo [2] = assay: Follow-up for 6 months after stopping bimatoprost treatment: positive response and relapse; assay type: in vivo, human; settings: for Response positive (at least 25% repigmentation), number of patients / Response positive, ratio to total number of patients: 6 months after stopping therapy; for Relapse/loss of pigment, number of patients / Relapse/loss of pigment, percentage of patients with positive response: 6 months following cessation of therapy
Excerpt: The hypothetical mechanism of repigmentation would be of increased melanogenesis in dermal melanocytes together with increased transfer of melanin granules to the basal melanocytes.

[3] = cited from earlier work
Patients with vitiligo [4] = assay: Tolerability / side effects during therapy with topical bimatoprost; assay type: in vivo, human
Experimental: 20 Patients with vitiligo were treated with topical bimatoprost solution for 4 months to elucidate its efficacy and tolerability in stable vitiligo. The solution contained bimatoprost in a concentration of 0.3 mg/mL (0.03%), benzalkonium chloride in a concentration of 0.05 mg/mL, and water. The solution has a pH of between 6.8 and 7.8, and contains sodium chloride, a dibasic sodium phosphate/citric acid buffer, and sodium hydroxide and/or hydrochloric acid to adjust the pH.
All the patients were examined by an independent observer. The percentage of repigmentation in form of color or size changes and folliculocentric/peripheral repigmentation were observed.

[5] = site Mucosae (mucosal vitiligo or non-mucosal vitiligo progressed to mucosal surfaces)
[6] = vitiliginous lesions on the face or neck
[7] = vitiliginous lesions on the trunk or extremities

## CCNC(=O)CCCC=CCC1C(O)CC(O)C1C=CC(O)CCc1ccccc1 (stereo not drawn) [bimatoprost, 7-[3,5-dihydroxy-2-(3-hydroxy-5-phenyl-pent-1-enyl)-cyclopentyl]-N-ethyl-hept-5-enamide]
Patients with vitiligo [1]; 20 patients
  complete clearance of vitiligo lesions (100% repigmentation), percentage of patients: 30%
  marked to excellent repigmentation (50-99%), percentage of patients: 55%
Patients with vitiligo [1]; 20 patients, all types of vitiligo
  patients in whom repigmentation was observed, percentage: 70%
Patients with vitiligo [1]; Focal vitiligo
  number of patients with Complete repigmentation (100%): 1
  number of patients with Excellent repigmentation (75-99%): 4
  number of patients with Marked repigmentation (50-74%): 1
  number of patients with Moderate repigmentation (25-49%): 0
  number of patients with Nil/mild repigmentation (less than 25%): 0
Patients with vitiligo [1]; Mucosal vitiligo
  number of patients with Complete repigmentation (100%): 0
  number of patients with Excellent repigmentation (75-99%): 0
  number of patients with Marked repigmentation (50-74%): 0
  number of patients with Moderate repigmentation (25-49%): 0
  number of patients with Nil/mild repigmentation (less than 25%): 2
Patients with vitiligo [1]; Segmental vitiligo
  number of patients with Complete repigmentation (100%): 1
  number of patients with Excellent repigmentation (75-99%): 2
  number of patients with Marked repigmentation (50-74%): 1
  number of patients with Moderate repigmentation (25-49%): 0
  number of patients with Nil/mild repigmentation (less than 25%): 0
Patients with vitiligo [1]; all patients
  mean onset of pigmentation after initiation of therapy: 2 months
Patients with vitiligo [1]; all patients treated
  patients treated with at least 50% repigmentation: 75%
Patients with vitiligo [1]; lesions on mucosal surfaces or on the extremities
  response of lesions, in words: respond poorly
Patients with vitiligo [1]; lesions on the face and neck
  vitiliginous lesions showing at least 50% repigmentation: all vitiliginous lesions
Patients with vitiligo [1]; lesions on the trunk
  vitiliginous lesions showing at least 50% repigmentation: 66%
Patients with vitiligo [1]; new patients (vitiligo for 6 months or less)
  repigmentation commencing after initiation of therapy: four to six
Patients with vitiligo [1]; out of 20 patients, all types of vitiligo
  patients in whom repigmentation was observed, number: 14
Patients with vitiligo [1]; remaining patients with generalized vitiligo
  repigmentation, in words: little or no repigmentation
Patients with vitiligo [1]; segmental or focal vitiligo
  patients exhibiting at least 50% repigmentation (at least marked): all patients
Patients with vitiligo [1]; site Extremities
  Repigmentation of body sites: number with Complete repigmentation (100%): 0
  Repigmentation of body sites: number with Excellent repigmentation (75-99%): 0
  Repigmentation of body sites: number with Marked repigmentation (50-74%): 0
  Repigmentation of body sites: number with Moderate repigmentation (25-49%): 2
  Repigmentation of body sites: number with Nil/mild repigmentation (less than 25%): 2
Patients with vitiligo [1]; site Head & neck
  Repigmentation of body sites: number with Complete repigmentation (100%): 4
  Repigmentation of body sites: number with Excellent repigmentation (75-99%): 4
  Repigmentation of body sites: number with Marked repigmentation (50-74%): 2
  Repigmentation of body sites: number with Moderate repigmentation (25-49%): 0
  Repigmentation of body sites: number with Nil/mild repigmentation (less than 25%): 0
Patients with vitiligo [1]; [5]
  Repigmentation of body sites: number with Complete repigmentation (100%): 0
  Repigmentation of body sites: number with Excellent repigmentation (75-99%): 0
  Repigmentation of body sites: number with Marked repigmentation (50-74%): 0
  Repigmentation of body sites: number with Moderate repigmentation (25-49%): 2
  Repigmentation of body sites: number with Nil/mild repigmentation (less than 25%): 2
Patients with vitiligo [1]; site Trunk
  Repigmentation of body sites: number with Complete repigmentation (100%): 0
  Repigmentation of body sites: number with Excellent repigmentation (75-99%): 2
  Repigmentation of body sites: number with Marked repigmentation (50-74%): 2
  Repigmentation of body sites: number with Moderate repigmentation (25-49%): 0
  Repigmentation of body sites: number with Nil/mild repigmentation (less than 25%): 2
Patients with vitiligo [1]; topical, twice a day
  start of the repigmentation effect after starting the treatment: one to two
Patients with vitiligo [1]; vitiligo Vulgaris
  number of patients with Complete repigmentation (100%): 2
  number of patients with Excellent repigmentation (75-99%): 2
  number of patients with Marked repigmentation (50-74%): 1
  number of patients with Moderate repigmentation (25-49%): 0
  number of patients with Nil/mild repigmentation (less than 25%): 3
Patients with vitiligo [1]; vitiligo restricted to the mucosal surfaces or to the extremities
  repigmentation, in words: little or no repigmentation
Patients with vitiligo [1]; vitiligo vulgaris (generalized vitiligo)
  patients exhibiting at least 50% repigmentation (at least marked): More than 60%
Patients with vitiligo [2]; Extremities, 4 patients
  Response positive (at least 25% repigmentation), number of patients: 2
  Response positive, ratio to total number of patients: 50%
Patients with vitiligo [2]; Extremities
  Relapse/loss of pigment, number of patients: 1
  Relapse/loss of pigment, percentage of patients with positive response: 50%
Patients with vitiligo [2]; Face and neck, 10 patients
  Response positive (at least 25% repigmentation), number of patients: 10
  Response positive, ratio to total number of patients: 100%
Patients with vitiligo [2]; Face and neck
  Relapse/loss of pigment, number of patients: 1
  Relapse/loss of pigment, percentage of patients with positive response: 10%
Patients with vitiligo [2]; Focal, 6 patients
  Response positive (at least 25% repigmentation), number of patients: 6
  Response positive, ratio to total number of patients: 100%
Patients with vitiligo [2]; Focal
  Relapse/loss of pigment, number of patients: 0
Patients with vitiligo [2]; Mucosal, 2 patients
  Response positive (at least 25% repigmentation), number of patients: 0
Patients with vitiligo [2]; Mucosal
  Relapse/loss of pigment, number of patients: 0
Patients with vitiligo [2]; Segmental, 4 patients
  Response positive (at least 25% repigmentation), number of patients: 4
  Response positive, ratio to total number of patients: 100%
Patients with vitiligo [2]; Segmental
  Relapse/loss of pigment, number of patients: 0
Patients with vitiligo [2]; Trunk, 6 patients
  Response positive (at least 25% repigmentation), number of patients: 4
  Response positive, ratio to total number of patients: 66%
Patients with vitiligo [2]; Trunk
  Relapse/loss of pigment, number of patients: 2
  Relapse/loss of pigment, percentage of patients with positive response: 50%
Patients with vitiligo [2]; Vulgaris, 8 patients
  Response positive (at least 25% repigmentation), number of patients: 4
  Response positive, ratio to total number of patients: 50%
Patients with vitiligo [2]; Vulgaris
  Relapse/loss of pigment, number of patients: 1
  Relapse/loss of pigment, percentage of patients with positive response: 25%
Patients with vitiligo [2]; focal or segmental vitiligo
  patients exhibiting a positive response 6 months after stopping therapy: 100%
  patients with positive response showing measurable depigmentation after 6 months: none
Patients with vitiligo [2]; generalized vitiligo (vitiligo vulgaris), eight patients
  patients exhibiting a positive response 6 months after stopping therapy: 50%
Patients with vitiligo [2]; generalized vitiligo (vitiligo vulgaris), of eight patients
  patients exhibiting a positive response 6 months after stopping therapy, number: four
Patients with vitiligo [2]; generalized vitiligo, of four responders
  patients with positive response showing measurable depigmentation after 6 months, number: one
Patients with vitiligo [2]; [6]
  patients exhibiting a positive response 6 months after stopping therapy: 100%
  patients with positive response showing measurable depigmentation after 6 months: none
Patients with vitiligo [2]; [7]
  patients exhibiting a positive response 6 months after stopping therapy: 60%
  patients with positive response showing measurable depigmentation after 6 months: 60%
[3]
  solubility in water: only slightly soluble; also recorded: very low
Patients with vitiligo [4]; 20 patients, 0.03% solution topically, 4 months
  severe adverse reactions during the trial: No severe adverse reactions
Patients with vitiligo [4]; after application, especially on the lips
  most commonly observed side effect: transient burning sensation
Patients with vitiligo [4]; topical, 20 patients
  incidence of side-effects during therapy: 20%
  severity of side effects: mild
